# Experimental data reported in patent US4093617A, “3,5,7-Trisubstituted pyrazolo[1,5-a]pyrimidines” (ICN Pharmaceuticals, Inc., priority 1976, dated 1978).
# Values joined by “and” are separate entries in the source; they are usually repeats but may differ in a detail not shown here. Identical values can stand only once. Like-named read-outs stand apart in the source and are kept apart here.
# Experiments:
# [1] = test system: 3',5'-Cyclic-AMP phosphodiesterase (PDE); assay: Inhibition of PDE from rabbit lung, high affinity (Fraction II, low Km); type: biochemical; details: cAMP 1.6 × 10^-7 M, relative to theophylline
# [2] = test system: 3',5'-Cyclic-AMP phosphodiesterase (PDE); assay: Inhibition of PDE from beef heart, high affinity (Fraction II, low Km); type: biochemical; details: cAMP 1.6 × 10^-7 M, relative to theophylline
# in vivo = details: po
# Method: For this test male Swiss-Webster mice weighing 18 to 20 grams were food deprived 18 hours prior to the experiment. […] Drugs were given orally in 20 ml/kg of 1% CMC. Ethanol (5 gm/kg p.o.) was given 30 minutes after drug injection. Immediately after treatment animals were placed in individual clear plastic containers.
# The righting reflex was recorded as being present when the animal would voluntarily roll to its side when placed on its back. Animals were tested for righting reflex every 15 minutes.
# male Swiss-Webster mice = assay: Potentiation of the depressant effects of sodium barbital, loss of the righting reflex in the mouse; type: in vivo
# Method: This dose of barbital sodium (100 mg/kg) was then injected i.p. in a group of ten mice. Fifteen min. later the mice were injected i.p. with the dose of compound to be tested. […] Mice were tested at 15 min. intervals for one hour after injection of test compound. Responses were recorded on an all-or-none basis; loss of righting reflex for 5 min. or longer was the effective criteria.
# [3] = test system: 3',5'-Cyclic AMP Phosphodiesterase (PDE); assay: Inhibition of 3',5'-cyclic AMP phosphodiesterase (PDE) isolated from rabbit lung, low affinity (Fraction I, high Km); type: biochemical; details: for IC50: cAMP approx. 5 × 10^-4 M
# male Sprague-Dawley rats = assay: Antianxiety activity: stimulation of drinking activity of the rat in a passive avoidance behavioral paradigm; type: in vivo; details: for ED50: read-out: ED50 (dose producing 50% of maximum effect); for minimal effective dose: read-out: Dose wherein the first statistically behavioral difference (p<0.05 or less) from the control group occurs
# Method: In Tables V and VI the antianxiety activity of the listed compounds is measured as a function of the compounds ability to stimulate drinking activity of the rat in a passive avoidance behavioral paradigm. For these tests male Sprague-Dawley rats weighing 175 to 200 grams were water deprived for 48 hr. and placed in environmental chambers in which water was available with a punishment contingency. Each accumulated 3 sec. of contact with the drinking tube caused a constant current source (1.2 mA DC) to be applied to the drinking tube for 2 sec. Test sessions were 5 min. in duration, commencing with delivery of the first shock. Twelve rats were treated orally 1 hr. or intraperitoneally 30 min. prior to testing. The tests are scored based on the number of shocks accepted by the treated animals at a specific dose and were compared to twelve saline control animals tested on the same day.
# In Table V the activity is expressed as an ED50. The ED50 is the dose of the compound in mg/kg producing 50% of maximum effect and is shown for both oral (p.o.) and interperitoneal (i.p.) routes of administration.
# In Table VI the activity is expressed as the dose (i.p.) wherein the first statistically behavioral difference (p<0.05 or less) from the control group occurs. Included for comparison are the commonly prescribed antianxiety drugs, chlordiazepoxide and diazepam.
# [4] = test system: 3',5'-Cyclic AMP Phosphodiesterase (PDE); assay: Inhibition of 3',5'-cyclic AMP phosphodiesterase (PDE) isolated from rabbit kidney, low affinity (Fraction I, high Km); type: biochemical; details: for IC50: cAMP approx. 5 × 10^-4 M
# [5] = test system: histamine-induced bronchospasm; details: F. L. Rose et al, J. Chem. Soc.; cited from earlier work
# central nevous system = details: in vivo; cited from earlier work
# phosphodiesterase = details: cited from earlier work
# [6] = ip, 0.5 h, i.p., 30 min prior to testing
# [7] = i.p., 15 min after sodium barbital 100 mg/kg i.p.
SMILES,α Lung [1],α Heart [2],NOAEL (in vivo; mouse),"Dose of compound which produced loss of righting reflex in 50% of treated animals (male Swiss-Webster mice; mouse, in vivo, ip)",ED50 (male Sprague-Dawley rats; [6]),"minimal effective dose (male Sprague-Dawley rats; ip, 0.5 h, i.p.)","ED50 (male Sprague-Dawley rats; po, 1 hr prior to testing)",α (relative inhibitory activity as compared with theophylline) [4],IC50 ([4]; read-out: I50),also measured
"CCCc1cc(CCC)n2ncc(Br)c2n1 [XVII, 3-Bromo-5,7-di-n-propylpyrazolo[1,5-a]pyrimidine]",5.5,3.0,,,,,,,,
"Cc1cc(C)n2ncc(Br)c2n1 [Example I, 3-Bromo-5,7-dimethyl pyrazolo[1,5-a]pyrimidine]",0.7,1.7,400 mg/kg,61.9 ± 12.1 mg/kg,10.5 ± 0.8 mg/kg,10 mg/kg,9.5 ± 3.5 mg/kg,2.20,100 µM,α (relative inhibitory activity as compared with theophylline) [3]: 2.4; IC50 ([3]; read-out: I50): 270 µM
CCCc1nc(C)cc2nc(N)nn12 [COMPOUND 1],,,,,,,,0.14,1600 µM,Protection from histamine-induced bronchospasm [5]: capable of protecting animals from histamine-induced bronchospasm
"CCc1cc(C)nc2c(Br)cnn12 [XIV, 3-Bromo-7-ethyl-5-methylpyrazolo[1,5-a]pyrimidine]",7.5,4.0,,,,,,,,
"Cc1cc(C)n2ncc(I)c2n1 [III, 5,7-Dimethyl 3-iodo pyrazolo[1,5-a]pyrimidine]",3.5,1.5,200 mg/kg,142.8 ± 10.1 mg/kg,10.1 ± 6.8 mg/kg,20 mg/kg,95.9 ± 11.7 mg/kg,1.23,130 µM,α (relative inhibitory activity as compared with theophylline) [3]: 3.5; IC50 ([3]; read-out: I50): 210 µM
"Cc1cc(C)n2ncc(F)c2n1 [IV, 5,7-Dimethyl 3-fluoro pyrazolo[1,5-a]pyrimidine]",,,100 mg/kg,148.5 ± 4.5 mg/kg,40.7 ± 11.9 mg/kg,40 mg/kg,76.2 ± 10.8 mg/kg,,,
"CNC1=Nc2ccc(Cl)cc2C(c2ccccc2)=[N+]([O-])C1 [Chlordiazepoxide, chlordiazepoxide, reference compound]",,,,,,,,,,"NOAEL (in vivo; in vivo): 4 mg/kg; Dose of compound which produced loss of righting reflex in 50% of treated animals (male Swiss-Webster mice; [7]): 6.4 ± 0.4 mg/kg; minimal effective dose (male Sprague-Dawley rats; ip, 0.5 h): 10 mg/kg"
"CN1C(=O)CN=C(c2ccccc2)c2cc(Cl)ccc21 [Diazepam, diazepam, reference compound]",,,,,,,,,,"Dose of compound which produced loss of righting reflex in 50% of treated animals (male Swiss-Webster mice; [7]): 0.5 ± 0.8 mg/kg; minimal effective dose (male Sprague-Dawley rats; ip, 0.5 h): 20 mg/kg"
"CCc1cc(CC)n2ncc(Br)c2n1 [XVI, 3-Bromo-5,7-diethylpyrazolo[1,5-a]pyrimidine]",7.4,6.0,,,,,,,,
CCOC(=O)c1cnn2c(C)cc(C)nc12 [COOC2 H5],,,,,,,,0.22,1000 µM,
Cn1c(=O)c2[nH]cnc2n(C)c1=O [theophylline],,,,,,,,,,"Cardiovascular effects (central nevous system): rapid beating; Central nervous system effect (central nevous system): gives general stimulation to the central nevous system; IC50 ([3]; theophylline reference run of each compound line, read-out: I50 (Theophylline)): 640 µM and 740 µM; IC50 ([4]; theophylline reference run of each compound line, read-out: I50 (theophylline)): 160 µM and 220 µM and 320 µM; Selectivity of phosphodiesterase inhibition (phosphodiesterase): does not selectively inhibit phosphodiesterase"
"Cc1cc(C)n2nccc2n1 [H, 5,7-dimethyl pyrazolo[1,5-a]pyrimidine, reference compound]",,,300 mg/kg,118.8 ± 15.7 mg/kg,20.9 ± 4.6 mg/kg,40 mg/kg,43.6 ± 6.1 mg/kg,0.20,800 µM,α (relative inhibitory activity as compared with theophylline) [3]: 0.32; IC50 ([3]; read-out: I50): 2000 µM
CCCc1nc(C)cn2c(N)nnc12 [compound 2],,,,,,,,,,Protection from histamine-induced bronchospasm [5]: capable of protecting animals from histamine-induced bronchospasm
"Cc1cc(C)n2ncc(Cl)c2n1 [II, 3-Chloro-5,7-dimethyl pyrazolo[1,5-a]pyrimidine]",2.2,1.7,200 mg/kg,60.9 ± 20.8 mg/kg,2.4 ± 4.3 mg/kg,10 mg/kg,7.8 ± 4.5 mg/kg,1.33,240 µM,α (relative inhibitory activity as compared with theophylline) [3]: 3.1; IC50 ([3]; read-out: I50): 210 µM
"CCCc1cc(C)nc2c(Br)cnn12 [XV, 3-Bromo-5-methyl-7-n-propylpyrazolo[1,5-a]pyrimidine]",7.5,6.5,,,,,,,,
